Reference: patent publication US6737383B1, “Herbicidal oxadiazolidines” (priority 1999, dated 2004)

Columns and labels:
soybean = experiment: Test B pre/postemergence soybean; assay type: in vivo, Glycine max; details: Preemergence, scale of 0 to 10 where 0 is no effect and 10 is complete control
Summary of the method: (§1)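 Herbicidal effect was estimated by eye on a ten-point control scale after plants spent twelve to sixteen days in a greenhouse following soil or foliar treatment. Foliar sprays targeted plants at one to four leaves; all doses were formulated in a non-phytotoxic solvent with surfactant.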

cocklebur = experiment: Test B pre/postemergence cocklebur; assay type: in vivo, Xanthium strumarium; details: Preemergence
Summary of the method: as §1

pigweed = experiment: Test B pre/postemergence pigweed; assay type: in vivo, Amaranthus retroflexus; details: Preemergence, scale of 0 to 10 where 0 is no effect and 10 is complete control
Summary of the method: as §1

purple nutsedge = experiment: Test B pre/postemergence purple nutsedge; assay type: in vivo, Cyperus rotundus; details: Preemergence, scale of 0 to 10 where 0 is no effect and 10 is complete control
Summary of the method: as §1

wheat = experiment: Test B pre/postemergence wheat; assay type: in vivo, Triticum aestivum; details: Preemergence, scale of 0 to 10 where 0 is no effect and 10 is complete control
Summary of the method: as §1

morningglory = experiment: Test B pre/postemergence morningglory; assay type: in vivo, Ipomoea hederacea; details: Preemergence, scale of 0 to 10 where 0 is no effect and 10 is complete control
Summary of the method: as §1

sugar beet = experiment: Test B pre/postemergence sugar beet; assay type: in vivo, Beta vulgaris; details: Preemergence, scale of 0 to 10 where 0 is no effect and 10 is complete control
Summary of the method: as §1

wild oat = experiment: Test B pre/postemergence wild oat; assay type: in vivo, Avena fatua; details: Preemergence, Rate 125 g/ha; scale of 0 to 10 where 0 is no effect and 10 is complete control
Summary of the method: as §1

bedstraw = experiment: Test B pre/postemergence bedstraw; assay type: in vivo, Galium aparine; details: Preemergence
Summary of the method: as §1

giant foxtail = experiment: Test B pre/postemergence giant foxtail; assay type: in vivo, Setaria faberii; details: Preemergence, scale of 0 to 10 where 0 is no effect and 10 is complete control
Summary of the method: as §1

duck salad = experiment: Test B flood test duck salad; assay type: in vivo, Heteranthera limosa
Summary of the method: (§2)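 Read-out is a visual response score from 0 (no effect) to 10 (complete control), assigned by comparison with untreated controls. Treatment was applied at the 2-leaf stage, and plants stayed in the greenhouse for twelve to sixteen days before scoring.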

velvetleaf = experiment: Test B pre/postemergence velvetleaf; assay type: in vivo, Abutilon theophrasti; details: Preemergence, scale of 0 to 10 where 0 is no effect and 10 is complete control
Summary of the method: as §1

rice = experiment: Test B flood test rice; assay type: in vivo, Oryza sativa
Summary of the method: as §2

smallflower flatsedge = experiment: Test B flood test smallflower flatsedge; assay type: in vivo, Cyperus difformis
Summary of the method: as §2

bamyardgrass = experiment: Test B flood test barnyardgrass; assay type: in vivo, Echinochloa crus-galli
Summary of the method: as §2

crabgrass = experiment: Test B pre/postemergence crabgrass; assay type: in vivo, Digitaria sanguinalis; details: Preemergence
Summary of the method: as §1

rape = experiment: Test B pre/postemergence rape; assay type: in vivo, Brassica napus; details: Preemergence, scale of 0 to 10 where 0 is no effect and 10 is complete control
Summary of the method: as §1

surinam grass = experiment: Test B pre/postemergence surinam grass; assay type: in vivo, Brachiaria decumbens; details: Preemergence
Summary of the method: as §1

corn = experiment: Test B pre/postemergence corn; assay type: in vivo, Zea mays; details: Preemergence
Summary of the method: as §1

blackgrass = experiment: Test B pre/postemergence blackgrass; assay type: in vivo, Alopecurus myosuroides; details: Preemergence
Summary of the method: as §1

[1] = Rate 62 g/ha, scale of 0 to 10 where 0 is no effect and 10 is complete control
[2] = Rate 125 g/ha, scale of 0 to 10 where 0 is no effect and 10 is complete control
[3] = Rate 250 g/ha, scale 0 to 10 (0 no effect, 10 complete control)
[4] = Rate 500 g/ha, scale of 0 to 10 where 0 is no effect and 10 is complete control
[5] = Rate 62 g/ha, flood test species, Pre-emergence, visual evaluation after twelve to sixteen days
[6] = Rate 125 g/ha, under heading Pre-emergence, flood test species, visual evaluation after twelve to sixteen days
[7] = Rate 250 g/ha, Pre-emergence (flood test species), scale 0 to 10, 0 is no effect, 10 is complete control
[8] = Rate 500 g/ha, Pre-emergence section of Table B, 0 to 10 scale (0 no effect, 10 complete control)

CC(C)N(C(=O)n1oc(=O)n(C(C)C2CCC2)c1=O)c1ccc(F)cc1F (stereo not drawn) [Compound 702]
Soybean plant response rating (soybean; Rate 62 g/ha): 0 | Plant response rating, Soybean (soybean; Rate 125 g/ha): 0 | Cocklebur plant response rating (cocklebur; [1]): 0 | Plant response rating, Cocklebur (cocklebur; [2]): 0 | Plant response rating, Cocklebur (cocklebur; [3]): 0 | Plant response rating, Cocklebur (cocklebur; [4]): 0 | Redroot pigweed plant response rating (pigweed; Rate 62 g/ha): 2 | Plant response rating, Redroot pigweed (pigweed; Rate 125 g/ha): 5 | Nutsedge plant response rating (purple nutsedge; Rate 62 g/ha): 0 | Plant response rating, Nutsedge (purple nutsedge; Rate 125 g/ha): 0 | Wheat plant response rating (wheat; Rate 62 g/ha): 0 | Plant response rating, Wheat (wheat; Rate 125 g/ha): 0 | Morningglory plant response rating (morningglory; Rate 62 g/ha): 0 | Plant response rating, Morningglory (morningglory; Rate 125 g/ha): 0 | Sugarbeets plant response rating (sugar beet; Rate 62 g/ha): 0 | Plant response rating, Sugarbeets (sugar beet; Rate 125 g/ha): 0 | Plant response rating, Wild oats (wild oat): 0 | Bedstraw plant response rating (bedstraw; [1]): 0 | Plant response rating, Bedstraw (bedstraw; [2]): 0 | Plant response rating, Bedstraw (bedstraw; [3]): 0 | Plant response rating, Bedstraw (bedstraw; [4]): 0 | Giant foxtail plant response rating (giant foxtail; Rate 62 g/ha): 10 | Plant response rating, Giant foxtail (giant foxtail; Rate 125 g/ha): 10 | Plant response rating, Ducksalad (0 to 10 scale, 0 is no effect, 10 is complete control) (duck salad; [5]): 0 | Ducksalad plant response rating (0 to 10 scale, 0 is no effect, 10 is complete control) (duck salad; [6]): 0 | Ducksalad plant response rating (duck salad; [7]): 0 | Ducksalad plant response rating (duck salad; [8]): 0 | Velvetleaf plant response rating (velvetleaf; Rate 62 g/ha): 0 | Plant response rating, Velvetleaf (velvetleaf; Rate 125 g/ha): 0 | Plant response rating, Rice (0 to 10 scale, 0 is no effect, 10 is complete control) (rice; [5]): 0 | Rice plant response rating (0 to 10 scale, 0 is no effect, 10 is complete control) (rice; [6]): 0 | Rice plant response rating (rice; [7]): 0 | Rice plant response rating (rice; [8]): 0 | Plant response rating, S. Flatsedge (0 to 10 scale, 0 is no effect, 10 is complete control) (smallflower flatsedge; [5]): 0 | S. Flatsedge plant response rating (0 to 10 scale, 0 is no effect, 10 is complete control) (smallflower flatsedge; [6]): 0 | S. Flatsedge plant response rating (smallflower flatsedge; [7]): 0 | S. Flatsedge plant response rating (smallflower flatsedge; [8]): 0 | Plant response rating, Barnyardgrass (0 to 10 scale, 0 is no effect, 10 is complete control) (bamyardgrass; [5]): 0 | Barnyardgrass plant response rating (0 to 10 scale, 0 is no effect, 10 is complete control) (bamyardgrass; [6]): 0 | Barnyardgrass plant response rating (bamyardgrass; [7]): 0 | Barnyardgrass plant response rating (bamyardgrass; [8]): 0 | Crabgrass plant response rating (crabgrass; [1]): 9 | Plant response rating, Crabgrass (crabgrass; [2]): 10 | Plant response rating, Crabgrass (crabgrass; [3]): 10 | Rape plant response rating (rape; Rate 62 g/ha): 0 | Plant response rating, Rape (rape; Rate 125 g/ha): 0 | B. signalgrass plant response rating (surinam grass; [1]): 0 | Plant response rating, B. signalgrass (surinam grass; [2]): 2 | Plant response rating, B. signalgrass (surinam grass; [3]): 2 | Plant response rating, B. signalgrass (surinam grass; [4]): 8 | Corn plant response rating (corn; [1]): 0 | Plant response rating, Corn (corn; [2]): 0 | Plant response rating, Corn (corn; [3]): 0 | Blackgrass plant response rating (blackgrass; [1]): 2 | Plant response rating, Blackgrass (blackgrass; [2]): 2 | Plant response rating, Blackgrass (blackgrass; [3]): 9 | Plant response rating, Blackgrass (blackgrass; [4]): 10
